Data from patent US20220175820A1 (PIERRE FABRE DERMO-COSMETIQUE, priority 2019, published 2022).
Marks after values point to notes of the source that are not given here.

Assays:
Type in all cases: cell-based
TSLP = TSLP production by stimulated normal human epidermal keratinocytes (atopic dermatitis model, ELISA); conditions: bafilomycin 30 nM; stimulation by Poly I:C, PamC3, IL-4 and IL-13
Method: (§1) The study is performed on normal human epidermal keratinocytes cultured under standard conditions (37° C., 5% CO2). The culture medium is standard (keratinocyte-SFM supplemented with 0.25 ng/ml epidermal growth factor (EGF), 25 μg/ml pituitary extract and 25 μg/ml gentamycin). The test medium is the same without growth factor.
(§2) To simulate an atopic dermatitis environment, keratinocytes are preincubated for 1 hour in the medium with or without (control) the compounds to be tested, the vehicle (water) or the positive control, bafilomycin (macrolide family) at 30 nM. […] After this preincubation, keratinocytes are stimulated for 24 hours by a mixture of TLR ligands (Poly I:C and PamC3) and inflammatory cytokines (IL-4 and IL-13) added to the cells. An unstimulated control condition is also done at the same time. The cells are incubated for 24 hours.
(§3) The culture supernatants are collected, centrifuged and frozen at −80° C. TSLP and IL-8 are quantified by ELISA.
(§4) Three independent experiments are conducted. Statistical analysis is determined by one-way ANOVA followed by Dunnett's post-hoc test.

IL-8 = IL-8 production by stimulated normal human epidermal keratinocytes (atopic dermatitis model, ELISA); conditions: bafilomycin 30 nM; stimulation by Poly I:C, PamC3, IL-4 and IL-13
Method: as §1, §2, §3, §4

[1] = tested on: SULT2B1: cholesterol sulfotransferase; experiment: RT-qPCR gene expression in normal human keratinocytes: SULT2B1; conditions: calcium chloride 1.5 mM, 48 h
Method: (§5) The effects of this compound were assessed via the RT-qPCR technique with the analysis of 12 target genes chosen for their importance in keratinocyte differentiation, antimicrobial defence and hydration. Calcium chloride (tested at 1.5 mM) is used as the reference compound (physiological agent inducing terminal epidermal differentiation). The cells are then collected for analysis of target expression (mRNA) by real-time PCR. Total RNAs were extracted with TriPure Isolation Reagent® according to the supplier's instructions (Roche Life Science, Meylan, France). They were assayed with the Bioanalyser 2100 (Agilent Technologies, Les Ulis, France). The mRNAs were reverse transcribed into complementary DNA with oligo(dT) and Transcriptor Reverse Transcriptase. PCR was performed in the LightCycler® System according to the supplier's instructions (Roche). The PCR mix used is SYBR green I. The results were analyzed with Microsoft Excel®. The relative quantity is calculated for each gene by normalizing with two reference genes, ribosomal protein L13A (RPL13A) and TATA box binding protein (TBP).

[2] = tested on: FABP5: epidermal fatty acid binding protein; experiment: RT-qPCR gene expression in normal human keratinocytes: FABP5; conditions: calcium chloride 1.5 mM, 48 h
Method: as §5

[3] = tested on: DEGS2: sphingolipid C4-hydroxylase/delta-4 desaturase; experiment: RT-qPCR gene expression in normal human keratinocytes: DEGS2; conditions: calcium chloride 1.5 mM, 48 h
Method: as §5

KLK7: type 7 kallikrein = experiment: RT-qPCR gene expression in normal human keratinocytes: KLK7; conditions: calcium chloride 1.5 mM, 48 h
Method: as §5

FLG: filaggrin = experiment: RT-qPCR gene expression in normal human keratinocytes: FLG; conditions: calcium chloride 1.5 mM, 48 h
Method: as §5

CDSN : corneodesmosin = experiment: RT-qPCR gene expression in normal human keratinocytes: CDSN; conditions: calcium chloride 1.5 mM, 48 h
Method: as §5

TGM1: transglutaminase 1 = experiment: RT-qPCR gene expression in normal human keratinocytes: TGM1; conditions: calcium chloride 1.5 mM, 48 h
Method: as §5

CASP14: caspase 14 = experiment: RT-qPCR gene expression in normal human keratinocytes: CASP14; conditions: calcium chloride 1.5 mM, 48 h
Method: as §5

CLDN4: claudin 4 = experiment: RT-qPCR gene expression in normal human keratinocytes: CLDN4; conditions: calcium chloride 1.5 mM, 48 h
Method: as §5

DEFB4A: β-defensin 2 = experiment: RT-qPCR gene expression in normal human keratinocytes: DEFB4A; conditions: calcium chloride 1.5 mM, 48 h
Method: as §5

[4] = tested on: prostaglandin PG6KF1α production, HaCat line (human keratinocytes); experiment: PG6KF1α release by HaCat keratinocytes stimulated with calcium ionophore A23187 (ELISA); conditions: indomethacin 0.1 μM, A23187 5 μM for 5 hours
Method: The cell line used in this study is the HaCat line (human keratinocytes).
The cells are cultured in DMEM (Dulbecco's Modified Eagle Medium) supplemented with foetal calf serum in an environment at 37° C. and 5% CO2 on 24-well plates. They are then preincubated for 60 minutes, still at 37° C., with the products to be tested dissolved in water. A stimulant the arachidonic acid pathway is added for 5 hours. This is the stimulation phase; the stimulant is the calcium ionophore A23187 (solution in 0.01% DMSO) used at 5 μM. […] After 5 hours of stimulation, still in the same medium, the culture supernatant of each well is drawn off, centrifuged at 3000 RPM then stored at −20° C. The production of prostaglandin PG6KF1α in culture supernatant is measured with the Euromedex Elisa kit according to the supplier's instructions. Statistical analysis is performed by ANOVA followed by Dunnett's post-hoc test. Note that 3 independent experiments were conducted. The results for each product and for each dose are averaged from measurements performed on 3 wells. Thus, the control group (with no stimulant) makes it possible to quantify basal PG6KF1α production.

SMILES: CO/C1=C\C(C)=C\[C@@H](C)[C@@H](O)[C@@H](C)C/C(C)=C/C=C/[C@H](OC)[C@@H]([C@@H](C)[C@@H](O)[C@H](C)[C@@]2(O)C[C@@H](O)[C@H](C)[C@@H](C(C)C)O2)OC1=O [Bafilomycin, bafilomycin, reference compound]
- TSLP production at 24 h % Inh (TSLP): 70* %
- TSLP production at 24 h Mean (TSLP): 81 pg/mL
- Production of IL-8 at 24 h Mean (IL-8): 26022 pg/mL

SMILES: [Ca+2].[Cl-].[Cl-] [Calcium chloride]
- SULT2B1 Mean RQ (relative quantity) [1]: 14.0
- FABP5 Mean RQ (relative quantity) [2]: 6.9
- DEGS2 Mean RQ (relative quantity) [3]: 3.0
- KLK7 Mean RQ (relative quantity) (KLK7: type 7 kallikrein): 11.3
- FLG Mean RQ (relative quantity) (FLG: filaggrin): 4.5
- CDSN Mean RQ (relative quantity) (CDSN : corneodesmosin): 1.8
- TGM1 Mean RQ (relative quantity) (TGM1: transglutaminase 1): 9.0
- CASP14 Mean RQ (relative quantity) (CASP14: caspase 14): 1.6
- CLDN4 Mean RQ (relative quantity) (CLDN4: claudin 4): 2.5
- DEFB4A Mean RQ (relative quantity) (DEFB4A: β-defensin 2): 118.0

SMILES: COc1ccc2c(c1)c(CC(=O)O)c(C)n2C(=O)c1ccc(Cl)cc1 [Indo, indomethacin, reference compound]
- PG6KF1α % Inh [4]: 33%
- PG6KF1α (pg/ml) Mean [4]: 839.9 pg/mL
- PG6KF1α % Inh ([4]; listed as Indomethacin): a third
